These results are taken from PMC9822352, “Design, Synthesis and Evaluation of New Multifunctional Benzothiazoles as Photoprotective, Antioxidant and Antiproliferative Agents” (Molecules, 2022).

For one data set, the system named is HaCat keratinocytes. The data set is described as follows: Cell growth inhibition assay, HaCat. It counts as cell-based, human. The conditions noted are these: Homo sapiens, HaCaT; 24 h incubation, cell count. The method, then: All synthesized compounds were tested in order to evaluate their in vitro antiproliferative activity. The human melanoma Colo-38 cell line was selected as a tumor skin model, while the immortalized human HaCaT keratinocytes were chosen as a control for the evaluation of the cytotoxicity towards non-cancerous cells and of the selectivity towards tumor cell lines. […] The selectivity index (SI) was also calculated and is the ratio between the IC50 of a given compound towards the non-cancerous cell line and the IC50 of the same compound towards the tumor cell line.
Cell growth inhibition assays were carried out using human melanoma Colo-38 cells and skin HaCat keratinocytes cells. Human melanoma Colo-38 cells were kindly provided by Dr. Patrizio Giacomini (Laboratory of Immunology, Regina Elena Institute, Rome, Italy). HaCat cells were kindly provided by Istituto Zooprofilattico Sperimentale della Lombardia e dell’Emilia Romagna, Brescia, Italy. Cell lines were seeded using concentrations of 40,000 cells/mL and 25,000 cells/mL, respectively. Colo-38 cells were maintained in RPMI 1640, supplemented with 10% fetal bovine serum (FBS), penicillin (100 Units mL^−1), and streptomycin (100 µg mL^−1). HaCat cells were maintained in DMEM, supplemented with 10% fetal bovine serum (FBS), penicillin (100 Units mL^−1), streptomycin (100 µg mL^−1) and glutamine (2 mM); the incubation was performed at 37 °C in a 5% CO2 atmosphere. Tested compounds were dissolved in MeOH/DMSO (1:1) to obtain 50 mM stock solutions and diluted before cell treatment in MeOH 100%. The tested compounds were added at serial dilutions to the cell cultures (from 0.1 to 100 µM) and incubated for 24 h further. Cells were then harvested, suspended in physiological solution, and counted with a Z2 Coulter Counter (Coulter Electronics, Hialeah, FL, USA). The cell number/mL and the IC50 values were determined when untreated cells were in the log phase of cell growth. Cells treated with vehicles and untreated cells were placed in each plate.

The next data set relates to Colo-38 cell line. The data set is described as follows: Pro-apoptotic activity (Annexin V method), Colo-38. The note with it: for Dead (%) / Early Apoptosis (%) / Late Apoptosis (%): 24 h; for total apoptosis: Colo-38, 24 h, concentrations approaching IC50. It counts as cell-based, human. The method, then:
The Annexin V assay was conducted at two concentrations approaching IC50 values toward the selected cell lines reported in Table 3. The complete set of data is reported in Table 4, while representative data from the analysis of the corresponding Muse Analyzer plots are shown in Figure 2.
Apoptosis assays were performed with a Muse® Cell Analyzer instrument (Merck Millipore, Burlington, MA, USA) and the kit on Colo-38 and HaCat cell lines according to the manufacturer’s protocol. Cells were treated and exposed to the compounds for 24 h. This procedure is based on the detection of PS (PhosphatidylSerine) exposed on the external membrane of apoptotic cells by Annexin V. Four populations of cells can be distinguished using this assay: live, early apoptotic, late apoptotic and dead cells. The MUSE cell analyzer can discriminate “early” from “late” apoptosis since “early apoptotic cells” are Annexin V-positive and 7-AAD-negative, while “late apoptotic cells” are positive to both Annexin V and 7-AAD (7-aminoactinomycin D). The DNA intercalating molecule 7AAD (7-aminoactinomycin D) is used as an indicator of cell membrane integrity, since it binds DNA only in cells undergoing late apoptosis/death stage, when the membrane integrity is lost. Muse Annexin V and Dead Cell reagent were used to dilute the cells (1:1). After 20 min of incubation between cell samples and the kit at room temperature in the dark, the samples were analyzed using 0.01% Triton X-100 as positive control. The data were acquired and recorded using the Annexin V and Dead Cell software module (Millipore, Billerica, MA, USA).

The nature of data set [1]: In vitro filtering parameters of O/W sunscreen formulation containing 3% compound (modified Diffey-Robson, PMMA plates). The conditions noted are these: 3% in formulation, before irradiation. The text has this:
All synthesized compounds were formulated at 3% and their photoprotective efficacy, determined by spectrophotometric measurements using the modified Diffey-Robson method, was compared with that of the lead compound PBSA (used at 3% in the same formulation) and using the base without active as a control (Table 2).
The synthesized compounds were incorporated at a concentration of 3% in a typical oil-in-water sunscreen formulation, to evaluate the filtering parameters, and have the following ingredient composition:
INCI (International Nomenclature Cosmetic Ingredients): aqua, glycerin, Euxyl PE 9010, xanthan gum, Tribehenin PEG-20 Esters, cetearyl alcohol, dicaprylyl carbonate, PPG-26-Buteth-26 (and) PEG-40 Hydrogenated Castor Oil (and) water, C12-C15 Alkyl Benzoate, and Sodium hydroxide (sol. 10%).
As previously reported the protocol indicates to spread 32.5 mg of each formulation on 25 cm^2 PMMA plates with the fingers. Each formulation was tested in triplicate, and five measurements were recorded for each dish, following a 15–30 min incubation in the dark at room temperature. UV transmittance data was recorded using a UV-VIS spectrophotometer in the range 290–400 nm. The blank plate, SPF, UVA-PF and critical wavelength were obtained by SPF Calculator software (version 2.1), Shimadzu, Milan, Italy).

Data set [2] can be described thus: Photostability study of 3% formulation (post-irradiation filtering parameters). The note with it: 3% in formulation; for % SPFeff (residual percentage of SPF in vitro): SPF after/before irradiation × 100; for % UVA-PFeff (residual percentage of UVA-PF): UVA-PF after/before irradiation × 100; for SPF / UVA/UVB / UVAPF / λc: post irradiation. From the text: To outline the efficacy and safety profile of a sunscreen formulation, it is essential to provide data relating to photostability. It is possible to provide photodegradation data by recording, pre- and post-irradiation, the transmittance of PMMA plates with finger-coat formulations subjected to a dose of UVA capable of causing erythema, according to the criteria of Garoli et al.. By means of Equations (2) and (3) it was possible to evaluate the residual percentage of SPF in vitro and of UVA-PF for all the prepared formulations. Of greatest interest are the values obtained for the derivatives BZTcin2 and BZTcin4.
To determine the photostability, the previously reported method was adopted, which consists in preparing each plate as mentioned above and subjecting it to solar irradiation quantified as the minimum dose of UVA equivalent to an effective radiant exposure of erythema. The protocol stipulates that, before and after exposure to sunlight, the transmission of the sun protection layer in the range of 290–400 nm is recorded.
Using Equations (2) and (3) below, the residual percentage of SPF in vitro (% SPFeff.) and UVA-PF (% UVA-PFeff.) have been obtained, which, if greater than or equal to 80, can classify a filter as photostable. %SPFeff. = in vitro SPFafter/in vitro SPFbefore × 100(2) %UVA − PFeff. = UVA − PFafter/UVA − PFbefore × 100(3)

As for `O=C(/C=C/c1ccc(O)cc1)Nc1nc2ccccc2s1` [BZTcin2, (E)-N-(benzo[d]thiazol-2-yl)-3-(4-hydroxyphenyl)acrylamide], in the data set with HaCat keratinocytes, the half-inhibitory concentration (IC50) is above 100 µM. For the same molecule, in the data set on Colo-38 cell line (Colo-38, 5 µM), the “Dead (%)” value stood at 2.05%, the “Early Apoptosis (%)” value stood at 1.70% and the “Late Apoptosis (%)” value is recorded as 16.90%. For the same molecule, in the data set with Colo-38 cell line (Colo-38, 50 µM), the “Dead (%)” value turned out to be 4.45% and the “Early Apoptosis (%)” value was 1.85%. For the same molecule, the total apoptosis result in the data set on Colo-38 cell line is “over 30%”. In data set [1], this molecule had an SPF of 12.26, a UVA/UVB of 1.49, a UVAPF0 of 11.79 and a λc of 380 nm. For the same molecule, in data set [2], the “% SPFeff (residual percentage of SPF in vitro)” value is recorded as 96.00%, the “% UVA-PFeff (residual percentage of UVA-PF)” value was 85.50%, the SPF is listed as 11.77 and the UVA/UVB was 1.49. Moreover, in data set [2], the UVAPF worked out at 10.08 and the λc is listed as 377 nm.
As for `O=C(/C=C/c1ccc(O)c(O)c1)Nc1nc2ccccc2s1` [BZTcin4, (E)-N-(benzo[d]thiazol-2-yl)-3-(3,4-dihydroxyphenyl)acrylamide], the half-maximal inhibitory concentration (IC50) with HaCat keratinocytes was 38.1 ± 5.13 µM. In addition, in the data set on Colo-38 cell line (Colo-38, 5 µM), the “Dead (%)” value came out at 1.00%, the “Early Apoptosis (%)” value was determined as 3.85% and the “Late Apoptosis (%)” value is 8.50%. Besides, in the data set on Colo-38 cell line (Colo-38, 10 µM), the “Dead (%)” value is on record as 1.35%, the “Early Apoptosis (%)” value came out at 3.20% and the “Late Apoptosis (%)” value is reported as 8.00%. Also, the total apoptosis result in the data set on Colo-38 cell line was “does not induce apoptosis at any of the concentrations tested”. In data set [1], this molecule returned an SPF of 9.70, a UVA/UVB of 1.39, a UVAPF0 of 11.40 and a λc of 380 nm. In data set [2], the “% SPFeff (residual percentage of SPF in vitro)” value came out at 86.91%, the “% UVA-PFeff (residual percentage of UVA-PF)” value was determined as 93.25%, the SPF is on record as 8.43 and the UVA/UVB amounted to 1.39. In data set [2], the UVAPF was determined as 10.63 and the λc is listed as 380 nm.
As to `COc1ccc(/C=C/C(=O)Nc2nc3ccccc3s2)cc1O` [BZTcin5, (E)-N-(benzo[d]thiazol-2-yl)-3-(3-hydroxy-4-methoxyphenyl)acrylamide], the concentration for half-maximal inhibition (IC50) in the data set on HaCat keratinocytes stood at 83.3 ± 5.79 µM. Moreover, in the data set with Colo-38 cell line (Colo-38, 10 µM), the “Dead (%)” value is listed as 3.75%, the “Early Apoptosis (%)” value was 1.80% and the “Late Apoptosis (%)” value was 21.40%. Moreover, in the data set with Colo-38 cell line (Colo-38, 50 µM), the “Dead (%)” value came out at 3.50%, the “Early Apoptosis (%)” value is on record as 1.40% and the “Late Apoptosis (%)” value is 16.25%. For the same molecule, the total apoptosis with Colo-38 cell line is above 20%. In data set [1], the SPF was 3.84, the UVA/UVB was found to be 1.11, the UVAPF0 was determined as 3.61 and the λc came out at 378 nm. In data set [2], the SPF was determined as 3.51, the UVA/UVB is recorded as 1.11, the UVAPF is listed as 3.32 and the λc was 377 nm.
In turn, `O=C(N/N=C/c1ccc(O)cc1)c1nc2ccccc2s1` [BZTidr2, (E)-N′-(4-hydroxybenzylidene)benzo[d]thiazole-2-carbohydrazide] displayed an IC50 with HaCat keratinocytes above 100 µM. In data set [1], this molecule returned an SPF of 1.85, a UVA/UVB of 1.09, a UVAPF0 of 1.96 and a λc of 386 nm. In data set [2], this molecule yielded an SPF of 1.85, a UVA/UVB of 1.09, a UVAPF of 1.96 and a λc of 386 nm.
